Drawing on patent US20240246967A1, “AXL COMPOUNDS” (ARCUS BIOSCIENCES, INC., priority 2021, published 2024), this text covers IC50 for 9 compounds.

Where only a bound is given, the exact number is not on record here.

One assay has as its target T1, human MER (Homo sapiens, UniProt Q12866).
T1 construct: purchased Invitrogen
T1 sequence (Q12866 21-999): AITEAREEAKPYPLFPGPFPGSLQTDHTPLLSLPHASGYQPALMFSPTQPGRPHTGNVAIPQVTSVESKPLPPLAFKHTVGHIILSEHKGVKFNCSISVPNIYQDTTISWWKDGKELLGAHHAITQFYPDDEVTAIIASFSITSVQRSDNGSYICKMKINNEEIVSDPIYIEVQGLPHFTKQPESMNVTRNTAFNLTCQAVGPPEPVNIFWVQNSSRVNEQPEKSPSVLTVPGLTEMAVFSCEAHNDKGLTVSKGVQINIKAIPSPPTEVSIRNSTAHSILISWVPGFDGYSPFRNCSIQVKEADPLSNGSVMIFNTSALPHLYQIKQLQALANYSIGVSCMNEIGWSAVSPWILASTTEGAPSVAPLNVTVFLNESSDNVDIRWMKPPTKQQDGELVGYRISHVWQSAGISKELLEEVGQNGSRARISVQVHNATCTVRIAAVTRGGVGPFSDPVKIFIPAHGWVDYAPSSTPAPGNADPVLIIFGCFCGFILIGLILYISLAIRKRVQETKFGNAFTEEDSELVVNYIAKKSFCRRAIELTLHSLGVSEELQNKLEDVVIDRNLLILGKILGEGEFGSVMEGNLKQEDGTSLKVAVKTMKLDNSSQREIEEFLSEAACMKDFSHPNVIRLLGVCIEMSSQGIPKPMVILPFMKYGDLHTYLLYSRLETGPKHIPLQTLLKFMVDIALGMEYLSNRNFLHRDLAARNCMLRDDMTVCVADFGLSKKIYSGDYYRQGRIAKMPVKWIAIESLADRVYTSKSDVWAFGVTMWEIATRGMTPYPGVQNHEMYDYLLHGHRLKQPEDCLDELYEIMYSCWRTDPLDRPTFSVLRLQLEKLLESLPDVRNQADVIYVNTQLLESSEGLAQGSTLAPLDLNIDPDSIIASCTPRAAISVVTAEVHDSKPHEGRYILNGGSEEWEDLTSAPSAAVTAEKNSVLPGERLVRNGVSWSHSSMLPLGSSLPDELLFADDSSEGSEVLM
Description: HTRF KinEASE-TK biochemical potency assay, MER. The settings on record: 1 nM MER, 700 μM ATP, 800 nM TK Substrate-biotin. The essentials:
(§1)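 Recombinant human kinase preincubated 1 h at RT with compound, then reacted 2 h at RT with 800 nM biotin-TK substrate and 700 μM ATP (final; 5 nM AXL, 1 nM TYRO3 or MER) in HEPES pH 7.4, MgCl2, BSA, DTT, 1% DMSO. HTRF 665/620 ratio read; percent activity versus DMSO and pre-quenched controls.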

A further assay has as its target T2, Axl (Homo sapiens, UniProt P30530).
T2 sequence (P30530 26-894): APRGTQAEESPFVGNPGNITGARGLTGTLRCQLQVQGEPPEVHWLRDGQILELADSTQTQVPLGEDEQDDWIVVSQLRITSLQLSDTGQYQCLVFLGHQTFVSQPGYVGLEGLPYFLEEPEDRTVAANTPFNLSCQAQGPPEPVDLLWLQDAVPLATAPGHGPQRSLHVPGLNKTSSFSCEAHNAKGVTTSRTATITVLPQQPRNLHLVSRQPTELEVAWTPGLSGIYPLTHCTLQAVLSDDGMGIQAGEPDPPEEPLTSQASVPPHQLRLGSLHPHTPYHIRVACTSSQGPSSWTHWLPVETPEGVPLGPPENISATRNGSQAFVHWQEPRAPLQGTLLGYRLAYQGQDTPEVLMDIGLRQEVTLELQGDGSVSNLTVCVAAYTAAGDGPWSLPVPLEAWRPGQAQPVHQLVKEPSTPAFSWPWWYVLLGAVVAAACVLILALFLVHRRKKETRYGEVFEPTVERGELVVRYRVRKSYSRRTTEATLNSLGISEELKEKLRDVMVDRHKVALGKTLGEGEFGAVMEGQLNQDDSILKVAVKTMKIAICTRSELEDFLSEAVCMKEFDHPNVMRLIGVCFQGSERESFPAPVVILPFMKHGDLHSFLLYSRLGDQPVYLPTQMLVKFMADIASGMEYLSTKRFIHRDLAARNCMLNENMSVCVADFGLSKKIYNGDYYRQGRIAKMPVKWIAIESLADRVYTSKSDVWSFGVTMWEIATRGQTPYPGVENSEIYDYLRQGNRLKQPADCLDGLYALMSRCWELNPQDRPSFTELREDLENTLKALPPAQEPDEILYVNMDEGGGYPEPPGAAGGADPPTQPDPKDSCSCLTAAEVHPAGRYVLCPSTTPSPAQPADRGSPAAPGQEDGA
The assay can be described thus: HTRF KinEASE-TK biochemical potency assay, AXL. Further details: purchased Invitrogen. The settings on record: 5 nM AXL, 700 μM ATP, 800 nM TK Substrate-biotin. The essentials: as §1

For the compound `C[C@@H]1CCCN1C1(C)CCc2ccc(-c3cnc4[nH]nc(-c5ccc(C(=O)NC6CC6)cc5)c4c3)cc2CC1` (stereo partly drawn) [Example 69, N-Cyclopropyl-4-(5-{7-methyl-7-[(2R)-2-methylpyrrolidin-1-yl]-6,7,8,9-tetrahydro-5H-benzo[7]annulen-2-yl}-1H-pyrazolo[3,4-b]pyridin-3-yl)benzamide], the IC50 was 100 to 1000 nM on human MER and less than 100 nM against Axl.

For the compound `CC(C)NC(=O)c1ccc(-c2n[nH]c3ncc(-c4ccc5c(c4)CCC(C)(N4CCC[C@H]4C)CC5)cc23)cc1` (stereo partly drawn) [Example 70, 4-(5-{7-Methyl-7-[(2R)-2-methylpyrrolidin-1-yl]-6,7,8,9-tetrahydro-5H-benzo[7]annulen-2-yl}-1H-pyrazolo[3,4-b]pyridin-3-yl)-N-(propan-2-yl)benzamide], the results for the IC50 against human MER and against Axl were greater than 1000 nM and less than 100 nM, respectively.

As for `COCCNC(=O)c1ccc(-c2n[nH]c3ncc(-c4ccc5c(c4)CCC(C)(N4CCC[C@H]4C)CC5)cc23)cc1` (stereo partly drawn) [Example 72, N-(2-Methoxyethyl)-4-(5-{7-methyl-7-[(2R)-2-methylpyrrolidin-1-yl]-6,7,8,9-tetrahydro-5H-benzo[7]annulen-2-yl}-1H-pyrazolo[3,4-b]pyridin-3-yl)benzamide], the values for the IC50 at human MER and against Axl were greater than 1000 nM and less than 100 nM, respectively.

For the compound `CCC1(N2CCC[C@H]2C)CCc2ccc(-c3cnc4[nH]nc(-c5ccc(C(N)=O)c(Cl)c5)c4c3)cc2CC1` (stereo partly drawn) [Example 73, 2-Chloro-4-(5-{7-ethyl-7-[(2R)-2-methylpyrrolidin-1-yl]-6,7,8,9-tetrahydro-5H-benzo[7]annulen-2-yl}-1H-pyrazolo[3,4-b]pyridin-3-yl)benzamide], the IC50 against human MER and against Axl was less than 100 nM throughout.

In the case of `CCC1(N2CCC[C@@H]2CO)CCc2ccc(-c3cnc4[nH]nc(-c5ccc(C(N)=O)c(Cl)c5)c4c3)cc2CC1` (stereo partly drawn) [Example 74, 2-Chloro-4-(5-{7-ethyl-7-[(2R)-2-(hydroxymethyl)pyrrolidin-1-yl]-6,7,8,9-tetrahydro-5H-benzo[7]annulen-2-yl}-1H-pyrazolo[3,4-b]pyridin-3-yl)benzamide], the IC50 on human MER and against Axl was less than 100 nM in each case.

With `CCC1(N2CCC[C@H]2CO)CCc2ccc(-c3cnc4[nH]nc(-c5ccc(C(N)=O)c(Cl)c5)c4c3)cc2CC1` (stereo partly drawn) [Example 75, 2-Chloro-4-(5-{7-ethyl-7-[(2S)-2-(hydroxymethyl)pyrrolidin-1-yl]-6,7,8,9-tetrahydro-5H-benzo[7]annulen-2-yl}-1H-pyrazolo[3,4-b]pyridin-3-yl)benzamide], the IC50 against human MER and on Axl was less than 100 nM in each case.

With `C[C@@H]1CCCN1C1(C)CCc2ccc(-c3cnc4[nH]nc(-c5ccc(C(=O)N6CCC6)cc5)c4c3)cc2CC1` (stereo partly drawn) [Example 76, (2R)-1-(2-{3-[4-(Azetidine-1-carbonyl)phenyl]-1H-pyrazolo[3,4-b]pyridin-5-yl}-7-methyl-6,7,8,9-tetrahydro-5H-benzo[7]annulen-7-yl)-2-methylpyrrolidine], the IC50 against human MER was 100 to 1000 nM; against Axl, less than 100 nM.

For the compound `NC(=O)c1ccc(-c2n[nH]c3ncc(-c4ccc5c(c4)CCC(N4CCCC4)CC5)cc23)cc1Cl` (stereo not drawn) [Example 77, 2-Chloro-4-(5-(7-(pyrrolidin-1-yl)-6,7,8,9-tetrahydro-5H-benzo[7]annulen-2-yl)-1H-pyrazolo[3,4-b]pyridin-3-yl)benzamide], the IC50 against human MER and at Axl was less than 100 nM in each case.

In the case of `NC(=O)c1ccc(-c2n[nH]c3ncc(-c4ccc5c(c4)CCC(N4CCCC4)CC5)cc23)cc1` (stereo not drawn) [Example 78, 4-(5-(7-(Pyrrolidin-1-yl)-6,7,8,9-tetrahydro-5H-benzo[7]annulen-2-yl)-1H-pyrazolo[3,4-b]pyridin-3-yl)benzamide], the figures for the IC50 against human MER and against Axl were 100 to 1000 nM and less than 100 nM, respectively.
